Inhibition and Kp uu data for one compound are collected here from ChEMBL document CHEMBL4043168, “The design and SAR of a novel series of 2-aminopyridine based LRRK2 inhibitors” (Bioorg Med Chem Lett, 2017).

As a reminder, the inhibition is the drop in the measured response relative to a control, in per cent.

Data set [1] concerns the target Serine/threonine-protein kinase PLK1 (Homo sapiens) (UniProt P53350). Briefly: Inhibition of PLK1 conserved Lys1 (CFEISDADTKEVFAGKIVPK) in human PBMC at 1 uM.
Data set [2] has as its target T1, Inhibitor of nuclear factor kappa-B kinase subunit epsilon (Homo sapiens) (UniProt Q14164).
T1 sequence (whole entry): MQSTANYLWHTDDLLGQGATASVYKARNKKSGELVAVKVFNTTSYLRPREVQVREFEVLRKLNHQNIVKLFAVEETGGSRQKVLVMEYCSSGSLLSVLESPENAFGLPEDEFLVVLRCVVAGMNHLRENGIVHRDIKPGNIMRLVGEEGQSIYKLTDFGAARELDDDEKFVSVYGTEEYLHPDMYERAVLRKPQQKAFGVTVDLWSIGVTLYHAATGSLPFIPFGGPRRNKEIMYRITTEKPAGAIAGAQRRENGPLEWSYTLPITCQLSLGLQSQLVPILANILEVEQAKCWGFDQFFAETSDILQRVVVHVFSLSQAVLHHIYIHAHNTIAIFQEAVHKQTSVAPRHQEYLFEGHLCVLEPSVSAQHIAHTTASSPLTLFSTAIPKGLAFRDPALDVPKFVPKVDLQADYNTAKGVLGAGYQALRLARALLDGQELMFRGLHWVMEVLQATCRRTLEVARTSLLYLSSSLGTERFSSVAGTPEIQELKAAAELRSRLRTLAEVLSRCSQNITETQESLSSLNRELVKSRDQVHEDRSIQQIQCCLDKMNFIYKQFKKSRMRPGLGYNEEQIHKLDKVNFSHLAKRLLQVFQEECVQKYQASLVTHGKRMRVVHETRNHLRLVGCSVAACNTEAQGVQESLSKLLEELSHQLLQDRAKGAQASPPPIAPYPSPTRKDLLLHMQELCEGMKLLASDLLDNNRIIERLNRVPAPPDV
Briefly: Inhibition of IKKe conserved Lys1 (SGELVAVKVFNTTSYLRPR) in human PBMC at 1 uM.

In data set [3] the target is T2, Interleukin-1 receptor-associated kinase 4 (Homo sapiens) (UniProt Q9NWZ3).
T2 sequence (whole entry): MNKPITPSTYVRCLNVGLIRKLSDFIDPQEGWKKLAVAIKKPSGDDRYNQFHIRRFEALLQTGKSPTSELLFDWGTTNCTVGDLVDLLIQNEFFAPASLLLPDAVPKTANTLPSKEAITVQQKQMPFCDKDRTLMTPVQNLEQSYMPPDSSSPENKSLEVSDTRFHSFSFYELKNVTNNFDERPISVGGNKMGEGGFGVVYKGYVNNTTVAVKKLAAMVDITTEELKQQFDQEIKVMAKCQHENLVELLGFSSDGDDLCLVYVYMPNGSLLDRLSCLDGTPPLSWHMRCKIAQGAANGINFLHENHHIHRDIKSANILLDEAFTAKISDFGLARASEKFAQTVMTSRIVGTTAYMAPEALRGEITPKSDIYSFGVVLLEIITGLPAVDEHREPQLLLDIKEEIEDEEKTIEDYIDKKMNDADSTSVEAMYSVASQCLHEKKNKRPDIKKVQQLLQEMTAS
Briefly: Inhibition of IRAK4 conserved Lys2 (DIKSANILLDEAFTAK) in human PBMC at 0.1 uM.

Data set [4] has as its target Cyclin-dependent kinase 5 (Homo sapiens) (UniProt Q00535). Description: Inhibition of CDK5 labeling at conserved Lys2 (DLKPQNLLINR) in human PBMC at 1 uM.
Data set [5] addresses Mitogen-activated protein kinase kinase kinase 15 (Homo sapiens) (UniProt Q6ZN16). Description: Inhibition of MAP3K15 conserved Lys1 (IAIKEIPER) in human PBMC at 0.1 uM.
The nature of data set [6]: Ratio of unbound drug level in mouse brain to plasma at 10 mg/kg, po. The class given is ADME, organism-based. As to conditions: read-out: K(p,uu,brain).
Data set [7] addresses Leucine-rich repeat serine/threonine-protein kinase 2 (Homo sapiens, UniProt Q5S007). Briefly: Inhibition of LRRK2 conserved Lys2 (DLKPHNVLLFTLYPNAAIIAK) in human PBMC at 1 uM.
Data set [8] addresses Serine/threonine-protein kinase WNK2 (Homo sapiens) (UniProt Q9Y3S1). Description: Inhibition of Wnk2 activation Loop (IGDLGLATLKR) in human PBMC at 1 uM.
Data set [9] deals with T3, Tyrosine-protein kinase JAK3 (Homo sapiens) (UniProt P52333).
T3 sequence (whole entry): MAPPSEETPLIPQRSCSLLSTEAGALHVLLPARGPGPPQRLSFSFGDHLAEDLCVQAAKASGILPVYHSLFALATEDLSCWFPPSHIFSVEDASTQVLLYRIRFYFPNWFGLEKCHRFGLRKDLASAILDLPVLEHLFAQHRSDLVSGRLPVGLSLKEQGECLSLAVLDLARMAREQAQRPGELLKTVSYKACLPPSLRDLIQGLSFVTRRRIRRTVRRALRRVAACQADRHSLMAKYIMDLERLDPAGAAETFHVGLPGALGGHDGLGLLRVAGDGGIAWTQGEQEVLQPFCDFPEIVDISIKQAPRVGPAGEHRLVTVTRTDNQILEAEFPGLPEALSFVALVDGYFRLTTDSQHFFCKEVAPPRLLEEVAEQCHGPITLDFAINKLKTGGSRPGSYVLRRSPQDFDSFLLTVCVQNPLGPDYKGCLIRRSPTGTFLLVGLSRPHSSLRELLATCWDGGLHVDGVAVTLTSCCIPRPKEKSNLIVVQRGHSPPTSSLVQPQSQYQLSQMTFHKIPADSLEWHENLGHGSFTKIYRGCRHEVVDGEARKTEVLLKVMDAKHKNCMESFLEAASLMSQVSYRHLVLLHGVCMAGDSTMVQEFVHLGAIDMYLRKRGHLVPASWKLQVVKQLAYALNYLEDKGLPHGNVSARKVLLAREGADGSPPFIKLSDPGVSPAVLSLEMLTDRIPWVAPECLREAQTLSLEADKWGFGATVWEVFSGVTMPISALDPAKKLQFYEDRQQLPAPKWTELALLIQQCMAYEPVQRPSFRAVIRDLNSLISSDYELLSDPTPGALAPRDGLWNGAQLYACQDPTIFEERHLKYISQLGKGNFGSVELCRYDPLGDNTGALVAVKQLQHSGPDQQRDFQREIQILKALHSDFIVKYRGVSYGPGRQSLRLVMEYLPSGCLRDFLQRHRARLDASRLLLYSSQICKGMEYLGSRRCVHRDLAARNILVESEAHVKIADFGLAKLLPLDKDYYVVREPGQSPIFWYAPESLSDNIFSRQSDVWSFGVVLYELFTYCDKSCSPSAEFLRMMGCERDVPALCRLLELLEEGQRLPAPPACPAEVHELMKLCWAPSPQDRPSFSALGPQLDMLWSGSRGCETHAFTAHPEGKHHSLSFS
Description: Inhibition of JAK3 domain2 conserved Lys1 (YDPLGDNTGALVAVKQLQHSGPDQQR) in human PBMC at 1 uM.

In data set [10] the target is Serine/threonine-protein kinase LATS2 (Homo sapiens) (UniProt Q9NRM7). Briefly: Inhibition of LATS2 conserved Lys2 (DIKPDNILIDLDGHIK) in human PBMC at 0.1 uM.
Chain of Serine/threonine-protein kinase LATS2 (Homo sapiens) (Q9NRM7 whole entry): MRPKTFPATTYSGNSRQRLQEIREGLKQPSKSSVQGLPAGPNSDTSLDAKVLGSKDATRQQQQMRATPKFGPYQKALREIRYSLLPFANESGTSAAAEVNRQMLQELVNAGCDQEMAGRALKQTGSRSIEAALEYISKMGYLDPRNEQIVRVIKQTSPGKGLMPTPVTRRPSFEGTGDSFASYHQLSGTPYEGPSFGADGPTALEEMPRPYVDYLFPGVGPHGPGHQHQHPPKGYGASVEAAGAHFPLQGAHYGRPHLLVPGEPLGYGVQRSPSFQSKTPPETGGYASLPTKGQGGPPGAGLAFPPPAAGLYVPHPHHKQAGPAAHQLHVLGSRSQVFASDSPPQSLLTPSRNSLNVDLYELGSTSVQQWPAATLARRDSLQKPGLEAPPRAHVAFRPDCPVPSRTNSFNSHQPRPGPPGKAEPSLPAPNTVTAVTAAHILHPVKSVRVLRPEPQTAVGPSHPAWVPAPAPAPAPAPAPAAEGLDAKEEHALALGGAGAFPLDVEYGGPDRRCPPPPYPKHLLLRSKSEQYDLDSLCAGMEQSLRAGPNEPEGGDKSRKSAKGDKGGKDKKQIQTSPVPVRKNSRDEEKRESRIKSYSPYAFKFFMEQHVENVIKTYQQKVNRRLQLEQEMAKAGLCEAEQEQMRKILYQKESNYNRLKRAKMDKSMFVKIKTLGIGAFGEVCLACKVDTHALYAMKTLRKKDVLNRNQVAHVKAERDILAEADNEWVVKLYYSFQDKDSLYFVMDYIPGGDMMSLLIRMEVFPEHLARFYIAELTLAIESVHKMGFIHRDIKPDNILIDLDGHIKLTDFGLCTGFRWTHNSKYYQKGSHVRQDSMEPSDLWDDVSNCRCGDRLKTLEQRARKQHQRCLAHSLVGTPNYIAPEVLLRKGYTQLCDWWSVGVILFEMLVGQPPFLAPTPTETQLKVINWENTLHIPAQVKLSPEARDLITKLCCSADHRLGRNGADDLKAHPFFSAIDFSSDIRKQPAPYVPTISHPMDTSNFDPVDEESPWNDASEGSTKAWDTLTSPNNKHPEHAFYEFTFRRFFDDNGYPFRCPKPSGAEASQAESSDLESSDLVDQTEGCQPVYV

Chain of Leucine-rich repeat serine/threonine-protein kinase 2 (Q5S007 whole entry): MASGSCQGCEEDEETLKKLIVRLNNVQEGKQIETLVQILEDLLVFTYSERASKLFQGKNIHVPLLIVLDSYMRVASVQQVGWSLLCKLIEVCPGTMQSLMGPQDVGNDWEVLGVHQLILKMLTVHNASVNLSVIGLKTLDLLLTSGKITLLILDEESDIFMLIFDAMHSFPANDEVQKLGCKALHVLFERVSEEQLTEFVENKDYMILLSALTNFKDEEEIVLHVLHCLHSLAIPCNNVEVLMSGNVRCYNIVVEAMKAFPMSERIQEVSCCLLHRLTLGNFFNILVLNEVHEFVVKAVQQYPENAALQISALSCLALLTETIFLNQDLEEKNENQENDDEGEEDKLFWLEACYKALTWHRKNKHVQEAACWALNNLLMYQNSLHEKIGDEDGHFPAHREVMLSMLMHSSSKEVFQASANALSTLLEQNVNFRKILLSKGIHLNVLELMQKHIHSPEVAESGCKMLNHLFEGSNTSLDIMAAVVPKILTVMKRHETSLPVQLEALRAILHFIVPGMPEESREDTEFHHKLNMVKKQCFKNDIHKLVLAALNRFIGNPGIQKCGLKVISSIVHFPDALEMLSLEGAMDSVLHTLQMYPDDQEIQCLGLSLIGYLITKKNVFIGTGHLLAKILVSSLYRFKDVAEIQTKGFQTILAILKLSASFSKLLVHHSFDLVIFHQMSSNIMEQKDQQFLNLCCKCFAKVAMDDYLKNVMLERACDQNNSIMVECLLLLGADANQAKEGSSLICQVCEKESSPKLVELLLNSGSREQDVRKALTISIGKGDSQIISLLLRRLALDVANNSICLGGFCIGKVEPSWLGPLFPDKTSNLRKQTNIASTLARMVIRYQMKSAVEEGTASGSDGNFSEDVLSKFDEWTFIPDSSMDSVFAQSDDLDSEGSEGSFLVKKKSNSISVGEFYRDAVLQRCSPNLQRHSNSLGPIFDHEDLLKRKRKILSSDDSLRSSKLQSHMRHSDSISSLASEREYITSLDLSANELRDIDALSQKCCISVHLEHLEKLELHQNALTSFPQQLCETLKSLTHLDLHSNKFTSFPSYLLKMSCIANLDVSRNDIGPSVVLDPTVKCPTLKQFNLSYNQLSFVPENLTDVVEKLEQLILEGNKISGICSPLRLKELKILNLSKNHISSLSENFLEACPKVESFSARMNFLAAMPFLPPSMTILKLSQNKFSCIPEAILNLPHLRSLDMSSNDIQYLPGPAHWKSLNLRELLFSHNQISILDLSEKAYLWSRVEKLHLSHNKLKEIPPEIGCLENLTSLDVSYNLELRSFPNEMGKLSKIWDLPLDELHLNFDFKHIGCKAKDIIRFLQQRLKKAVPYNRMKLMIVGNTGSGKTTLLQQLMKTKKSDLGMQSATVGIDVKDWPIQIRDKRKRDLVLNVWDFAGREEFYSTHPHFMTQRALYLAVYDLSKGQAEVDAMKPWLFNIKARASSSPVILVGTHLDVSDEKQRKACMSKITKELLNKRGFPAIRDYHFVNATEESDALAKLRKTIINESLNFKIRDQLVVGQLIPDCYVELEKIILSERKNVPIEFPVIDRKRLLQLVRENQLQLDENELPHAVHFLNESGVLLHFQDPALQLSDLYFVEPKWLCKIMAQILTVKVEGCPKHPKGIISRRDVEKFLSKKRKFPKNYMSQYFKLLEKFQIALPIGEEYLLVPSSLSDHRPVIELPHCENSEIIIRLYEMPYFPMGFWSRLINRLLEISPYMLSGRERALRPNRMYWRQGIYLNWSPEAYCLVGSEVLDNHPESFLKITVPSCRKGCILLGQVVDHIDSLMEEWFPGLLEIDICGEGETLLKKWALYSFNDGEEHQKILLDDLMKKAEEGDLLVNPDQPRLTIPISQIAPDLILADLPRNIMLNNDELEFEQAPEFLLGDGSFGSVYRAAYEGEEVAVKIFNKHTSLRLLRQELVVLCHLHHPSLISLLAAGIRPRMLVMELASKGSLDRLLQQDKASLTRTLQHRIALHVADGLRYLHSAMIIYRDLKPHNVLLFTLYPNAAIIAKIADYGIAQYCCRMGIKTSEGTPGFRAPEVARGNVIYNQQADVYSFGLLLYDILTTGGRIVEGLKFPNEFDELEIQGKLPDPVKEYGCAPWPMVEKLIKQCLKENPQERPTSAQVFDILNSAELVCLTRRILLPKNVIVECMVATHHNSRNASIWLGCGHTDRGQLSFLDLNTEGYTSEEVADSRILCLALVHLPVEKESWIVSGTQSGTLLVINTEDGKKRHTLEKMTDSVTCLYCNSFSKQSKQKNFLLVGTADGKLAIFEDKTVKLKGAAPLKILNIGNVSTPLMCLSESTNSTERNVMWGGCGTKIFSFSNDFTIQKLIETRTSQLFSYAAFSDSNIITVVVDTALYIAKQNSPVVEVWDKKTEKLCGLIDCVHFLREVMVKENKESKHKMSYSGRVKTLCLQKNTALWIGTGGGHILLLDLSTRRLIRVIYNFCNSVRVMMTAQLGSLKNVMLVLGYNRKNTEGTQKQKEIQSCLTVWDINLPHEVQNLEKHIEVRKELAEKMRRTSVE
Chain of Mitogen-activated protein kinase kinase kinase 15 (Homo sapiens) (Q6ZN16 whole entry): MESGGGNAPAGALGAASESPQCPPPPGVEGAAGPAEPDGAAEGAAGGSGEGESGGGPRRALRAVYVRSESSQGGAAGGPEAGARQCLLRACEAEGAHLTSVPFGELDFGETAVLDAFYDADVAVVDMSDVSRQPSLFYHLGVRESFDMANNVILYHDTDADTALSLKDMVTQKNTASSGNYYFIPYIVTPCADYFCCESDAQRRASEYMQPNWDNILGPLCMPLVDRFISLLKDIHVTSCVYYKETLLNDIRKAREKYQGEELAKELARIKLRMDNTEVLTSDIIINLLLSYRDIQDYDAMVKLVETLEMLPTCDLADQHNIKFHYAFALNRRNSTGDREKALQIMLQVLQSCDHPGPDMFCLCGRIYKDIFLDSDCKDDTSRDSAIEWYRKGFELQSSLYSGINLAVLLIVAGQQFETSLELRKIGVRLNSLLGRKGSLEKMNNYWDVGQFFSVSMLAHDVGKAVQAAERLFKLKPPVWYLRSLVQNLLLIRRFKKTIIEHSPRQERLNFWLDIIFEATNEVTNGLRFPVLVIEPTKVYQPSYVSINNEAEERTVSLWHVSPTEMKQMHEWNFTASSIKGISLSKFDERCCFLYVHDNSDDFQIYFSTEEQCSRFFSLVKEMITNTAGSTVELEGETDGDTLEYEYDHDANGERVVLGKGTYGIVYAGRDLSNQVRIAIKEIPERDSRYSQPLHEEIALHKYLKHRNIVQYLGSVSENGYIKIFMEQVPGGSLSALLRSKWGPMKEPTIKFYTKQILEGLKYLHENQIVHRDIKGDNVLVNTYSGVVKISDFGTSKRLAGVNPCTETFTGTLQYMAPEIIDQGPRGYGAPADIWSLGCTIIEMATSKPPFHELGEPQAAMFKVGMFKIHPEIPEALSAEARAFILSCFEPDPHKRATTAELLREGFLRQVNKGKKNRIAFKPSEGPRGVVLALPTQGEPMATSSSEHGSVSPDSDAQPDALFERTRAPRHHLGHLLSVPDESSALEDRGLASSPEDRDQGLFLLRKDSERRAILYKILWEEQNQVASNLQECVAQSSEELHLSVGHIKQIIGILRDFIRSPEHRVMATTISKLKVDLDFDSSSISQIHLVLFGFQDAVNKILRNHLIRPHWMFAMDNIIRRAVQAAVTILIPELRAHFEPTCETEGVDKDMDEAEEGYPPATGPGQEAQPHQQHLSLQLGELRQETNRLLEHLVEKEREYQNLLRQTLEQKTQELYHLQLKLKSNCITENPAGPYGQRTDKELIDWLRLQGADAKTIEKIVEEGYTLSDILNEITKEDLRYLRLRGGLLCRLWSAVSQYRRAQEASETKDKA

Consider `CC(C)n1cc(-c2cc(-c3ccc(CN4CCOCC4)cc3)cnc2N)nn1`, for which the inhibition is 16% in data set [1]; 5.5% in data set [2]; -1.8% in data set [3]; 8.9% in data set [4]; -0.5% in data set [5]; 48.5% in data set [7]. The results for the inhibition in data set [8], in data set [9] and in data set [10] were 21.9%, -0.9% and 3%, respectively. In addition, in [6], the Kp uu is 0.76.
